Test results as given in ChEMBL document CHEMBL1201862, “PubChem BioAssay data set” (2004).
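Each compound was tested at five concentrations against cells in 96-well plates for 48 hours. Here, GI50 denotes the concentration required for 50% inhibition of growth.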 Active and inactive are the calls of the source. Cut-off read from the data, not from the text of the source: active = GI50 up to about 1.1 µM and inactive = higher.

What was measured:
Test in all cases: NCI anticancer screen, dose series, 48 h
[1] = tested on: DU-145
[2] = tested on: K562
[3] = tested on: M14
[4] = tested on: NCI-H23
[5] = tested on: MOLT-4
[6] = tested on: EKVX
[7] = tested on: IGROV-1
[8] = tested on: NCI-H522
[9] = tested on: CCRF-CEM
[10] = tested on: PC-3
[11] = tested on: HOP-62
[12] = tested on: OVCAR-5
[13] = tested on: TK-10
[14] = tested on: U-251
[15] = tested on: 786-0
[16] = tested on: SF-295
[17] = tested on: OVCAR-8
[18] = tested on: SNB-19
[19] = tested on: T47D
[20] = tested on: A498
[21] = tested on: HOP-92
[22] = tested on: SF-268
[23] = tested on: COLO 205
[24] = tested on: OVCAR-4
[25] = tested on: SK-MEL-2
[26] = tested on: SK-MEL-5
[27] = tested on: MDA-N
[28] = tested on: HCC 2998
[29] = tested on: RXF 393
[30] = tested on: HT-29
[31] = tested on: HCT-15
[32] = tested on: OVCAR-3
[33] = tested on: MDA-MB-231
[34] = tested on: ACHN
[35] = tested on: MCF7
[36] = tested on: UACC-62
[37] = tested on: NCI/ADR-RES
[38] = tested on: Hs-578T
[39] = tested on: SR
[40] = tested on: LOX IMVI
[41] = tested on: KM12
[42] = tested on: SN12C
[43] = tested on: SF-539
[44] = tested on: HCT-116
[45] = tested on: CAKI-1
[46] = tested on: NCI-H226
[47] = tested on: SW-620
[48] = tested on: SK-MEL-28
[49] = tested on: Malme-3M
[50] = tested on: NCI-H460
[51] = tested on: SNB-75
[52] = tested on: MDA-MB-435
[53] = tested on: UO-31
[54] = tested on: BT-549
[55] = tested on: HL-60
[56] = tested on: A549
[57] = tested on: UACC-257
[58] = tested on: RPMI-8226
[59] = tested on: SK-OV-3

O=C(N/N=C\c1ccccc1)Nc1cccc2ccccc12
GI50 [1]: > 100 µM (inactive)
GI50 [2]: > 100 µM (inactive)
GI50 [3]: 21.8 µM (inactive)
GI50 [4]: > 100 µM (inactive)
GI50 [5]: > 100 µM (inactive)
GI50 [6]: 36.1 µM (inactive)
GI50 [7]: 24.7 µM (inactive)
GI50 [8]: 56.6 µM (inactive)
GI50 [9]: > 100 µM (inactive)
GI50 [10]: 24.4 µM (inactive)
GI50 [11]: 18.5 µM (inactive)
GI50 [12]: 60.4 µM (inactive)
GI50 [13]: 42.9 µM (inactive)
GI50 [14]: 30.3 µM (inactive)
GI50 [15]: 16.4 µM (inactive)
GI50 [16]: 32.1 µM (inactive)
GI50 [17]: 27.9 µM (inactive)
GI50 [18]: 60.7 µM (inactive)
GI50 [19]: 2.98 µM (inactive)
GI50 [20]: 25.4 µM (inactive)
GI50 [21]: 40.5 µM (inactive)
GI50 [22]: 57 µM (inactive)
GI50 [23]: 48.3 µM (inactive)
GI50 [24]: 33.5 µM (inactive)
GI50 [25]: 26.7 µM (inactive)
GI50 [26]: 12.1 µM (inactive)
GI50 [27]: 25.1 µM (inactive)
GI50 [28]: 80.2 µM (inactive)
GI50 [29]: 28.1 µM (inactive)
GI50 [30]: 24.3 µM (inactive)
GI50 [31]: 74 µM
GI50 [32]: > 100 µM (inactive)
GI50 [33]: 91.4 µM (inactive)
GI50 [34]: 18.1 µM (inactive)
GI50 [35]: > 10 µM (inactive)
GI50 [36]: 29.2 µM (inactive)
GI50 [37]: 87.7 µM (inactive)
GI50 [38]: 22 µM (inactive)
GI50 [39]: > 100 µM (inactive)
GI50 [40]: 44.2 µM (inactive)
GI50 [41]: 33.4 µM (inactive)
GI50 [42]: 20.3 µM (inactive)
GI50 [43]: 50.4 µM (inactive)
GI50 [44]: 35.9 µM (inactive)
GI50 [45]: 35.7 µM (inactive)
GI50 [46]: 27.1 µM (inactive)
GI50 [47]: 33.8 µM (inactive)
GI50 [48]: 21.7 µM (inactive)
GI50 [49]: 28.5 µM (inactive)
GI50 [50]: 27.7 µM (inactive)
GI50 [51]: 18.7 µM (inactive)
GI50 [52]: 29.9 µM (inactive)
GI50 [53]: 40.5 µM (inactive)
GI50 [54]: 31 µM (inactive)
GI50 [55]: > 100 µM (inactive)
GI50 [56]: 26.1 µM (inactive)
GI50 [57]: 78.2 µM (inactive)
GI50 [58]: > 100 µM (inactive)

O=C1c2ccccc2C(=O)N1CCCCCCNOCCCN1C(=O)c2ccccc2C1=O
GI50 [1]: 51.8 µM (inactive)
GI50 [2]: 29.7 µM (inactive)
GI50 [3]: 21.3 µM (inactive)
GI50 [4]: 26.1 µM (inactive)
GI50 [5]: 19.3 µM (inactive)
GI50 [6]: 25.6 µM (inactive)
GI50 [7]: 90.6 µM (inactive)
GI50 [8]: 26.5 µM (inactive)
GI50 [9]: 25.6 µM (inactive)
GI50 [10]: 28.3 µM (inactive)
GI50 [11]: 45.1 µM (inactive)
GI50 [12]: > 100 µM (inactive)
GI50 [13]: 59 µM (inactive)
GI50 [14]: 63 µM (inactive)
GI50 [15]: 99.1 µM (inactive)
GI50 [16]: 29.4 µM (inactive)
GI50 [17]: 38.9 µM (inactive)
GI50 [18]: 78.3 µM (inactive)
GI50 [19]: 16.8 µM (inactive)
GI50 [20]: 21.6 µM (inactive)
GI50 [21]: 34 µM (inactive)
GI50 [22]: > 100 µM (inactive)
GI50 [23]: 38.7 µM (inactive)
GI50 [24]: 22.3 µM (inactive)
GI50 [25]: 16.3 µM (inactive)
GI50 [26]: 15.4 µM (inactive)
GI50 [27]: 31.6 µM (inactive)
GI50 [28]: > 100 µM (inactive)
GI50 [29]: 17.5 µM (inactive)
GI50 [30]: 36.6 µM (inactive)
GI50 [31]: 40.2 µM
GI50 [32]: 23.7 µM (inactive)
GI50 [33]: 57.5 µM (inactive)
GI50 [34]: 36.7 µM (inactive)
GI50 [59]: 56.9 µM (inactive)
GI50 [35]: 35.3 µM (inactive)
GI50 [36]: 19.5 µM (inactive)
GI50 [37]: 26.4 µM (inactive)
GI50 [38]: > 100 µM (inactive)
GI50 [39]: 33.4 µM (inactive)
GI50 [40]: 36.2 µM (inactive)
GI50 [41]: 27.1 µM (inactive)
GI50 [42]: > 100 µM (inactive)
GI50 [44]: 48.8 µM (inactive)
GI50 [45]: 50.4 µM (inactive)
GI50 [46]: > 100 µM (inactive)
GI50 [47]: > 100 µM (inactive)
GI50 [48]: 55.3 µM (inactive)
GI50 [49]: 41.3 µM (inactive)
GI50 [50]: 44.2 µM (inactive)
GI50 [51]: 25.1 µM (inactive)
GI50 [52]: 25.2 µM (inactive)
GI50 [53]: 34 µM (inactive)
GI50 [54]: 30.3 µM (inactive)
GI50 [56]: 32.4 µM (inactive)
GI50 [57]: 31.1 µM (inactive)
GI50 [58]: 14.4 µM (inactive)
